SMILES strings stand for the structures.

The term IC50 denotes the concentration needed to halve the response being measured. A word on the inhibition: it is the relative decrease from the control value, in per cent.

The assay has as its target T1, recombinant human SAE enzyme (Homo sapiens, UniProt Q9UBT2).
T1 sequence (Q9UBT2 1-640): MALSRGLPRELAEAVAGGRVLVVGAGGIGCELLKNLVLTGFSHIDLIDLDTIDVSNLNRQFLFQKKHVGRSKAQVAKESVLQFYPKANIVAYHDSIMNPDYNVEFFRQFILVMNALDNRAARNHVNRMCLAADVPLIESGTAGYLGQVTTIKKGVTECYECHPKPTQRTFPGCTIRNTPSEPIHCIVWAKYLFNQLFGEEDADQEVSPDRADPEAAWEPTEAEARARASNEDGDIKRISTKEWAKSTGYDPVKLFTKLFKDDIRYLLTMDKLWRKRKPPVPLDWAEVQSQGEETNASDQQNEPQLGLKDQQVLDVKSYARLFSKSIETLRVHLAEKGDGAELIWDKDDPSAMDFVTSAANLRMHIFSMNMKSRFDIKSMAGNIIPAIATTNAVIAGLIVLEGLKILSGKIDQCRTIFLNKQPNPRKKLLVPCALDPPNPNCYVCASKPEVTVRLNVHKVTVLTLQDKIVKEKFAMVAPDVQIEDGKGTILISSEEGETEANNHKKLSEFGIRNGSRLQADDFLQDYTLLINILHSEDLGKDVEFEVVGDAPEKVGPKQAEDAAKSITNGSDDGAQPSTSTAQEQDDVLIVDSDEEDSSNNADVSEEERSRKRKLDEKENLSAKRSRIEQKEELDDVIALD
T1 sequence (Q9UBE0 1-346 partner): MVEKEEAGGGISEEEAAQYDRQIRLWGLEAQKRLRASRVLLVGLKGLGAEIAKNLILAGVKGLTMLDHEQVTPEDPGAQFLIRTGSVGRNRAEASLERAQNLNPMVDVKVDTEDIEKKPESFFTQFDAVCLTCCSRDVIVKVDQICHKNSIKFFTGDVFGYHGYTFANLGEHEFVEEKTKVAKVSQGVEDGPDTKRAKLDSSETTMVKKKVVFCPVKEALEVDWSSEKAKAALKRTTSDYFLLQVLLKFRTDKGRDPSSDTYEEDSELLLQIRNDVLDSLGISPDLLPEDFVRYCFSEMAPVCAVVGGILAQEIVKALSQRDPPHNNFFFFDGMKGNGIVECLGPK
Put plainly: SAE HTRF Enzyme Assay. The format is biochemical. The following applies: for IC50: class symbols A-C; for inhibition at 0.111 µM / Percent Inhibition: compound concentration 0.111 μM; for inhibition at 0.111 µM: read-out: Percent Inhibition; for Percent Inhibition: 0.111 µM. The protocol: The SAE enzymatic reaction totals 50 μl and contains 50 mM HEPES Hemisodium (pH 7.5), 0.05% BSA, 5 mM MgCl2, 0.5 μM ATP, 250 μM GSH, 0.01 μM Ubc9-GST, 0.125 μM Sumo-Flag and 0.11 nM recombinant human SAE enzyme. The enzymatic reaction mixture with and without inhibitor, Is incubated at 24° C. for 105 min in a 384-well plate before termination with […] of Stop/Detection buffer (0.1M HEPES Hemisodium pH 7.5, 0.05% Tween20, 20 mM EDTA, 410 mM KF, 0.53 nM Europium-Cryptate labeled monoclonal anti-Flag M2 Antibody (CisBio International) and 8.125 μg/ml PHYCOLINK goat anti-GST allophycocyanin (XL-APC) antibody (Prozyme)). After incubation for 2 hours at 24° C., quantification of FRET is performed on the Pherostar™ (BMG Labtech). Percentage inhibition values at a single concentration or enzyme inhibition (IC50) values are determined from those curves. One skilled in the art will appreciate that the values generated either as percentage inhibition at a single concentration or IC50 values are subject to experimental variation.
(TR-FRET usually uses a lanthanide donor and a delayed reading to cut background.)

For the molecule `C=C[S+]([O-])c1cccc(Cn2ccc(C(=O)c3cncnc3N[C@@H]3C[C@H](COS(N)(=O)=O)[C@@H](O)[C@H]3O)n2)c1` (mixture of isomers) [Compound I-74, [(1R,2R,3S,4R)-2,3-dihydroxy-4-{[5-({1-[3-((R)-vinylsulfinyl)benzyl]-1H-pyrazol-3-yl}carbonyl)pyrimidin-4-yl]amino}cyclopentyl]methyl sulfamate and [(1R,2R,3S,4R)-2,3-dihydroxy-4-{[5-({1-[3-((S)-vinylsulfinyl)benzyl]-1H-pyrazol-3-yl}carbonyl)pyrimidin-4-yl]amino}cyclopentyl]methyl sulfamate], the half-maximal inhibitory concentration (IC50) was less than 10 nM and the inhibition at 0.111 µM came to 92%.
In the same order, the values of `CC1(C)CCC(Cn2ccc(C(=O)c3cncnc3N[C@@H]3C[C@H](COS(N)(=O)=O)[C@@H](O)C3)n2)O1` (mixture of isomers) [Compound I-77, [(1R,2S,4R)-4-({5-[(1-{[(2R)-5,5-dimethyltetrahydrofuran-2-yl]methyl}-1H-pyrazol-3-yl)carbonyl]pyrimidin-4-yl}amino)-2-hydroxycyclopentyl]methyl sulfamate and [(1R,2S,4R)-4-({5-[(1-{[(2S)-5,5-dimethyltetrahydrofuran-2-yl]methyl}-1H-pyrazol-3-yl)carbonyl]pyrimidin-4-yl}amino)-2-hydroxycyclopentyl]methyl sulfamate] are 100 to 1000 nM and 51%.
For `CC1(C)CCC(Cn2ccc(C(=O)c3cncnc3N[C@@H]3C[C@H](COS(N)(=O)=O)[C@@H](O)[C@@H]3F)c2)O1` (mixture of isomers) [Compound I-250, [(1R,2R,3R,4R)-4-({5-[(1-{[(2R)-5,5-dimethyltetrahydrofuran-2-yl]methyl}-1H-pyrrol-3-yl)carbonyl]pyrimidin-4-yl}amino)-3-fluoro-2-hydroxycyclopentyl]methyl sulfamate and [(1R,2R,3R,4R)-4-({5-[(1-{[(2S)-5,5-dimethyltetrahydrofuran-2-yl]methyl}-1H-pyrrol-3-yl)carbonyl]pyrimidin-4-yl}amino)-3-fluoro-2-hydroxycyclopentyl]methyl sulfamate], the IC50 fell in the range of 10 to 100 nM and the inhibition at 0.111 µM is 86%.
For the molecule `NS(=O)(=O)OC[C@H]1C[C@@H](Nc2ncncc2C(=O)c2ccn(CC3CCCO3)n2)C[C@@H]1O` (mixture of isomers) [Compound I-293, [(1R,2S,4R)-2-hydroxy-4-{[5-({1-[(2R)-tetrahydrofuran-2-ylmethyl]-1H-pyrazol-3-yl}carbonyl)pyrimidin-4-yl]amino}cyclopentyl]methyl sulfamate and [(1R,2S,4R)-2-hydroxy-4-{[5-({1-[(2S)-tetrahydrofuran-2-ylmethyl]-1H-pyrazol-3-yl}carbonyl)pyrimidin-4-yl]amino}cyclopentyl]methyl sulfamate], the half-inhibitory concentration (IC50) is 100 to 1000 nM and the inhibition at 0.111 µM came to 38%.
In the same order, the values of `NS(=O)(=O)OC[C@H]1C[C@@H](Nc2ncncc2C(=O)c2ccn(C3C=CCCC3)n2)C[C@@H]1O` (mixture of isomers) [Compound I-302, [(1R,2S,4R)-4-{[5-({1-[(1R)-cyclohex-2-en-1-yl]-1H-pyrazol-3-yl}carbonyl)pyrimidin-4-yl]amino}-2-hydroxycyclopentyl]methyl sulfamate and [(1R,2S,4R)-4-{[5-({1-[(1S)-cyclohex-2-en-1-yl]-1H-pyrazol-3-yl}carbonyl)pyrimidin-4-yl]amino}-2-hydroxycyclopentyl]methyl sulfamate] are 100 to 1000 nM and 34%.
In the case of `NS(=O)(=O)OC[C@H]1C[C@@H](Nc2ncncc2C(=O)c2ccn(CC3CCOC3)n2)C[C@@H]1O` (mixture of isomers) [Compound I-332, [(1R,2S,4R)-2-hydroxy-4-{[5-({1-[(3R)-tetrahydrofuran-3-ylmethyl]-1H-pyrazol-3-yl}carbonyl)pyrimidin-4-yl]amino}cyclopentyl]methyl sulfamate and [(1R,2S,4R)-2-hydroxy-4-{[5-({1-[(3S)-tetrahydrofuran-3-ylmethyl]-1H-pyrazol-3-yl}carbonyl)pyrimidin-4-yl]amino}cyclopentyl]methyl sulfamate], the IC50 was in the range of 100 to 1000 nM and the inhibition at 0.111 µM amounted to 16%.
`NS(=O)(=O)OC[C@H]1C[C@@H](Nc2ncncc2C(=O)c2ccn(CC3CC3c3ccccc3)c2)C[C@@H]1O` (mixture of isomers) [Compound I-339, [(1R,2S,4R)-2-hydroxy-4-{[5-({1-[(1S,2S)-(2-phenylcyclopropyl)methyl]-1H-pyrrol-3-yl}carbonyl)pyrimidin-4-yl]amino}cyclopentyl]methyl sulfamate and [(1R,2S,4R)-2-hydroxy-4-{[5-({1-[(1R,2R)-(2-phenylcyclopropyl)methyl]-1H-pyrrol-3-yl}carbonyl)pyrimidin-4-yl]amino}cyclopentyl]methyl sulfamate]: the IC50 was less than 10 nM and the inhibition at 0.111 µM amounted to 93%.
Consider `COC(C)c1cc(C(=O)c2cncnc2N[C@@H]2C[C@H](COS(N)(=O)=O)[C@@H](O)C2)nn1Cc1cccc(Br)c1` (mixture of isomers) [Compound I-369, [(1R,2S,4R)-4-{[5-({1-(3-bromobenzyl)-5-[(1S)-1-methoxyethyl]-1H-pyrazol-3-yl}carbonyl)pyrimidin 4-yl]amino)-2-hydroxycyclopentyl]methyl sulfamate and [(1R,2S,4R)-4-{[5-({1-(3-bromobenzyl)-5-[(1R)-1-methoxyethyl]-1H-pyrazol-3-yl}carbonyl)pyrimidin-4-yl]amino}-2-hydroxycyclopentyl]methyl sulfamate], for which the half-inhibitory concentration (IC50) is less than 10 nM and the inhibition at 0.111 µM was 98%.
In the case of `NS(=O)(=O)OC[C@H]1C[C@@H](Nc2ncncc2C(=O)c2ccn(CC3CC3c3ccccc3)c2)[C@@H](F)[C@@H]1O` (single isomer, unassigned) [Compound I-9, [(1R,2R,3R,4R)-3-fluoro-2-hydroxy-4-{[5-({1-[(1R,2R)-(2-phenylcyclopropyl)methyl]-1H-pyrrol-3-yl}carbonyl)pyrimidin-4-yl]amino}cyclopentyl]methyl sulfamate or [(1R,2R,3R,4R)-3-fluoro-2-hydroxy-4-{[5-({1-[(1S,2S)-(2-phenylcyclopropyl)methyl]-1H-pyrrol-3-yl}carbonyl)pyrimidin-4-yl]amino}cyclopentyl]methyl sulfamate], the IC50 is 10 to 100 nM and the “Percent Inhibition” value was found to be 91%.
In the case of `C#Cc1cccc([C@@H](C)n2ccc(C(=O)c3cncnc3N[C@@H]3C[C@H](COS(N)(=O)=O)[C@@H](O)C3)n2)c1` (single isomer, unassigned) [Compound I-10], the IC50 was in the range of 10 to 100 nM and the inhibition at 0.111 µM was found to be 61%.
With `CC(c1cccc(Br)n1)n1ccc(C(=O)c2cncnc2N[C@@H]2C[C@H](COS(N)(=O)=O)[C@@H](O)C2)n1` (single isomer, unassigned) [Compound I-65, [(1R,2S,4R)-4-{[5-({1-[(1S)-1-(6-bromopyridin-2-yl)ethyl]-1H-pyrazol-3-yl}carbonyl)pyrimidin-4-yl]amino}-2-hydroxycyclopentyl]methyl sulfamate or [(1R,2S,4R)-4-{[5-({1-[(1R)-1-(6-bromopyridin-2-yl)ethyl]-1H-pyrazol-3-yl}carbonyl)pyrimidin-4-yl]amino}-2-hydroxycyclopentyl]methyl sulfamate], the IC50 is less than 10 nM and the “Percent Inhibition” value was 99%.

The record behind these values is US9695154B2, “Heteroaryl inhibitors of sumo activating enzyme” (MILLENNIUM PHARMACEUTICALS, INC., priority 2013, dated 2017).
